Key:
[1] = tested on: MCF-7 cells; assay: Breast cancer cell viability assay (CellTiter-Glo, 5 days); type: cell-based; conditions: 5 days' compound exposure; for IC50: Homo sapiens, MCF7, 120 h
In short: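 Eleven-point semilog compound series, final 0.3-0.000003 μM, added to overnight-adhered MCF-7 cells (320/well; RPMI, 10% FBS, 20 mM HEPES) for 5 days. Viability read by CellTiter-Glo luminescence, background from medium without cells subtracted, expressed relative to untreated cells.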

[2] = molecular target: T1, ER-α in MCF-7 cells (Homo sapiens, UniProt P03372); assay: Breast cancer cell ER-α in cell western assay (SP1); type: cell-based; parameters: endogenous in cells; host or cells: MCF-7; conditions: 4 or 24 hr post compound addition; for Emax: MCF7, SP1 antibody, read-out: ER-α In Cell Western Assay (SP1) Max Response; for DC50: SP1 antibody, read-out: ER-α In Cell Western Assay (SP1) IC50
T1 sequence (P03372 1-595): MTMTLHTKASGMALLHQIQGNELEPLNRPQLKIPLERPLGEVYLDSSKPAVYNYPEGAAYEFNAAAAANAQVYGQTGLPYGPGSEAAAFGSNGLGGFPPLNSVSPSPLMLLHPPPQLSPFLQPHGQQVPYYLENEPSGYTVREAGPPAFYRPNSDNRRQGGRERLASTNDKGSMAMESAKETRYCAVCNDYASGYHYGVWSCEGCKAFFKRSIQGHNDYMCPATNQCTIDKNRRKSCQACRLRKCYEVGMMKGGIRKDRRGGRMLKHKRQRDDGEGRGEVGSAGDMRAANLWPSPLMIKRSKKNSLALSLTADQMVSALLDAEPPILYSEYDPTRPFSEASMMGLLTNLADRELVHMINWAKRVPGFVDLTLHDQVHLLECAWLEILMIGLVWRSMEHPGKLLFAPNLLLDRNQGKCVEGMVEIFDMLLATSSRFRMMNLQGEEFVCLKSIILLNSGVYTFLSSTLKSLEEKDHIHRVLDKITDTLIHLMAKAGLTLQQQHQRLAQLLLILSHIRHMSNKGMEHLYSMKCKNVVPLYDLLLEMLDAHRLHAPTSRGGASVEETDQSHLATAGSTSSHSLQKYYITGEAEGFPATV
In short: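 MCF-7, charcoal-stripped FBS/RPMI, 3200 cells/well, adhered overnight. Formalin fix, SP1 Ab o/n 4 °C, IRDye 800CW + DRAQ5; % ER = 800/700 ratio vs untreated.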

SMILES	IC50 [1] [nM]	Emax [2] [%]	DC50 [2] [nM]	MCF7 Viability Assay Max Response [1]
CC/C(=C(/c1ccc(/C=C/C(N)=O)cc1)c1ccc2scnc2c1)c1ccccc1 [Compound 426, (E)-3-(4-((E)-1-(Benzo[d]thiazol-5-yl)-2-phenylbut-1-en-1-yl)phenyl)acrylamide]	≤ 100	≥ 40	≤ 100	++ (++ = a single % value ≧ 40%)
CCCCCCOc1cccc(/C(CC)=C(\c2ccc(/C=C/C(=O)O)cc2)c2ccc3[nH]ncc3c2)c1 [Compound 350, (E)-3-(4-((E)-2-(3-(Hexyloxy)phenyl)-1-(1H-indazol-5-yl)but-1-en-1-yl)phenyl)acrylic acid]	> 100	≥ 40	≤ 100	++ (++ = a single % value ≧ 40%)
CC/C(=C(/c1ccc(/C=C/C(=O)O)cc1)c1ccc2nccn2c1)c1ccccc1C [Compound 129, (E)-3-(4-((E)-1-(Imidazo[1,2-a]pyridin-6-yl)-2-(o-tolyl)but-1-en-1-yl)phenyl)acrylic acid]	> 100	≥ 40	≤ 100	++ (++ = a single % value ≧ 40%)
CC/C(=C(/c1ccc(/C=C/C(=O)Nc2nccs2)cc1)c1ccc2[nH]ncc2c1)c1ccccc1 [Compound 430, (E)-3-(4-((E)-1-(1H-Indazol-5-yl)-2-phenylbut-1-en-1-yl)phenyl)-N-(thiazol-2-yl)acrylamide]	≤ 100	≥ 40	≤ 100	++ (++ = a single % value ≧ 40%)
CC/C(=C(/c1ccc(/C=C/C(=O)O)cc1)c1cnc2[nH]ccc2n1)c1ccccc1 [Compound 246, (E)-3-(4-((E)-2-Phenyl-1-(5H-pyrrolo[2,3-b]pyrazin-2-yl)but-1-en-1-yl)phenyl)acrylic acid]	> 100	≥ 40	> 100	+ (+ = a single % value < 40%)
CC/C(=C(/c1ccc(/C=C/C(=O)O)cc1)c1ccc2[nH]ncc2c1F)c1ccc(Oc2ncccn2)cc1 [Compound 160, (E)-3-(4-((E)-1-(4-Fluoro-1H-indazol-5-yl)-2-(4-(pyrimidin-2-yloxy)phenyl)but-1-en-1-yl)phenyl)acrylic acid]	≤ 100	≥ 40	≤ 100	++ (++ = a single % value ≧ 40%)

Second part, led by results:

IC50 [1] [nM]	Emax [2] [%]	DC50 [2] [nM]	SMILES	MCF7 Viability Assay Max Response [1]
> 100	≥ 40	> 100	CC/C(=C(/c1ccc(/C=C/C(=O)O)cc1)c1ccc2[nH]ncc2c1)c1ccc2cn[nH]c2c1 [Compound 251, (E)-3-(4-((E)-1-(1H-Indazol-5-yl)-2-(1H-indazol-6-yl)but-1-en-1-yl)phenyl)acrylic acid]	++ (++ = a single % value ≧ 40%)
≤ 100	≥ 40	–	CC/C(=C(/c1ccc(/C=C/C(=O)O)cc1)c1ccc2[nH]ncc2c1)c1cscc1C [Compound 223, (E)-3-(4-((E)-1-(1H-Indazol-5-yl)-2-(4-methylthiophen-3-yl)but-1-en-1-yl)phenyl)acrylic acid]	++ (++ = a single % value ≧ 40%)
> 100	≥ 40	≤ 100	CC/C(=C(/c1ccc(/C=C/C(=O)O)cc1)c1ccc2[nH]ncc2c1)c1cccc(-n2cccn2)c1 [Compound 252, (E)-3-(4-((E)-2-(3-(1H-Pyrazol-1-yl)phenyl)-1-(1H-indazol-5-yl)but-1-en-1-yl)phenyl)acrylic acid]	++ (++ = a single % value ≧ 40%)
≤ 100	≥ 40	≤ 100	CC/C(=C(/c1ccc(/C=C/C(=O)O)cc1)c1ccc2[nH]ncc2c1)c1ccc2ncsc2c1 [Compound 259, (E)-3-(4-((E)-2-(Benzo[d]thiazol-6-yl)-1-(1H-indazol-5-yl)but-1-en-1-yl)phenyl)acrylic acid]	++ (++ = a single % value ≧ 40%)

From patent US9399646B2 (Genentech, Inc., priority 2010, dated 2016)
